Results on four compounds are retold here after ChEMBL document CHEMBL1201862, “PubChem BioAssay data set” (2004).

The structures appear in SMILES notation.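 Step 1: Grow cells in 96-well plates. Step 2: Expose to compound for 48 hours at 5 concentrations. Step 3: Interpolate endpoints linearly; if unreached, use highest concentration. GI50 = concentration required for 50% inhibition of growth.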 Activity calls are given as the source filed them. Rule as the data show it: active = GI50 up to about 1.1 µM and inactive = higher.

What all share (experiment): NCI tumour cell line growth inhibition, 48 h
The subject of experiment [1] is 786-0.
Experiment [2] relates to A498.
Experiment [3] concerns CAKI-1.
Experiment [4] relates to CCRF-CEM.
The subject of experiment [5] is Hs-578T.
Experiment [6] has as its system LOX IMVI.
Experiment [7] deals with M14.
Experiment [8] concerns MDA-MB-231.
Experiment [9] deals with MDA-N.
In experiment [10] the test system is MOLT-4.
The subject of experiment [11] is NCI/ADR-RES.
The subject of experiment [12] is OVCAR-3.
Experiment [13] relates to OVCAR-8.
The subject of experiment [14] is RXF 393.
Experiment [15] deals with SF-268.
Experiment [16] has as its system SK-MEL-28.
Experiment [17] relates to SR.
In experiment [18] the test system is UACC-62.
The subject of experiment [19] is RPMI-8226.

Turning to `COc1cc(C2CC(C)(N3CCCC3)Oc3cc4c(cc32)OCO4)cc(OC)c1OC` (stereo not drawn), the GI50 was 0.383 µM (active) in experiment [1]; 0.578 µM (active) in [2]; 0.527 µM (active) in [3]; 0.184 µM (active) in experiment [4]; 0.259 µM (active) in experiment [5]; 0.426 µM (active) in experiment [6]. Besides, the GI50 is 0.394 µM (active) in experiment [7]; 0.145 µM (active) in [8]; 0.0275 µM (active) in experiment [9]; 0.21 µM (active) in experiment [10]; 0.582 µM (active) in [11]; 0.129 µM (active) in experiment [12]. For the same compound, the GI50 in [13] is 0.524 µM (active); in experiment [14] it was 0.0908 µM (active); in [15], 0.745 µM (active); in experiment [16] it was 0.569 µM (active); in experiment [17] it was 0.488 µM (active).

Consider `O=[N+]([O-])c1ccc(C(Nc2ccccc2)P(c2ccccc2)c2ccccc2)cc1` (stereo not drawn), for which the GI50 in experiment [1], in [2], in experiment [3], in [5], in experiment [6] and in [7] was > 100 µM (inactive) in each case. In addition, the GI50 in experiment [8] was > 100 µM (inactive); in [9], > 100 µM (inactive); in experiment [10], 24.1 µM (inactive); in [11], > 100 µM (inactive); in experiment [13] it was > 100 µM (inactive); in [14], > 100 µM (inactive). The GI50 in [15], in experiment [16], in experiment [17] and in experiment [18] was > 100 µM (inactive) in each case.

Turning to `CCC(=O)O[C@H]1CC[C@H]2[C@@H]3CCC4=C/C(=N/OC(=O)c5cccc6c(=O)c7ccccc7[nH]c56)CC[C@]4(C)[C@H]3CC[C@]12C`, the GI50 in experiment [1] is 18.4 µM (inactive); in experiment [2], 27.1 µM (inactive); in experiment [4] it was 14 µM (inactive); in [5] it was 22.4 µM (inactive); in [6] it was 23.3 µM (inactive); in experiment [7], 24.7 µM (inactive). For the same compound, the GI50 was 88.3 µM (inactive) in experiment [8]; 35 µM (inactive) in [9]; 17.9 µM (inactive) in experiment [10]; 31.7 µM (inactive) in experiment [11]; 18.3 µM (inactive) in experiment [12]; 29.9 µM (inactive) in [13]. In addition, the GI50 is 19.9 µM (inactive) in experiment [19]; 22.5 µM (inactive) in experiment [14]; 38.5 µM (inactive) in [15]; 28.7 µM (inactive) in experiment [16]; 29.8 µM (inactive) in experiment [17]; 28.8 µM (inactive) in experiment [18].

Regarding `CNC(=O)N1CCN(C(=O)NC)CCN(C(=O)NC)CC1`, the GI50 in experiment [1], in experiment [2], in experiment [4], in [5], in [6] and in [7] was > 100 µM (inactive) throughout. Besides, the GI50 in experiment [8], in experiment [9], in [10], in experiment [11], in experiment [13] and in experiment [19] was > 100 µM (inactive) each time. The GI50 in experiment [14], in [15], in experiment [16], in experiment [17] and in experiment [18] was > 100 µM (inactive) in each case.
